# Data taken from patent publication US20220081412A1, “QUINOLINYL-PYRAZINE-CARBOXAMIDE COMPOUNDS AND USES THEREOF” (The Regents of the University of Michigan, priority 2018, published 2022).
# Test system: MIA PaCa-2 cells
# Assay: Bru-seq analysis for nascent RNA synthesis (log2FC of genes, GSEA gene sets)
# Format: cell-based, human
# Settings: downregulated gene sets, 4 h, MIA PaCa-2 cells
smiles,measurement,setting,value
"CCN(CC)CCCC(C)Nc1cnc(C(=O)Nc2cc(C)cc3cccnc23)cn1 (stereo not drawn) [J4, 5-((5-(diethylamino)pentan-2-yl)amino)-N-(6-methylquinolin-8-yl)pyrazine-2-carboxamide]",NES TURASHVILI_BREAST_LOBULAR_CARCINOMA_VS_DUCTAL_NORMAL_DN,C2,−1.603
same,NES ZHANG_TLX_TARGETS_36HR_DN,C2,−2.309
same,NES ZHANG_TLX_TARGETS_DN,C2,−1.942
same,NES ZHENG_FOXP3_TARGETS_IN_T_LYMPHOCYTE_DN,C2,−1.893
same,ES GO_BASAL_PART_OF_CELL,GO,−0.526
same,ES GO_CELL_SURFACE_RECEPTOR_SIGNALING_PATHWAY_INVOLVED_IN_CELL_CELL_SIGNALING,GO,−0.570
same,ES GO_CILIUM_ORGANIZATION,GO,−0.331
same,ES GO_CYTOKINE_RECEPTOR_ACTIVITY,GO,−0.488
same,ES GO_DENDRITIC_SHAFT,GO,−0.568
same,ES GO_DNA_DEPENDENT_ATPASE_ACTIVITY,GO,−0.369
same,ES GO_DNA_DEPENDENT_DNA_REPLICATION_MAINTENANCE_OF_FIDELITY,GO,−0.569
same,ES GO_DNA_DOUBLE_STRAND_BREAK_PROCESSING,GO,−0.551
same,ES GO_DNA_HELICASE_ACTIVITY,GO,−0.389
same,ES GO_DNA_REPAIR_COMPLEX,GO,−0.429
same,ES GO_GLUTAMINE_METABOLIC_PROCESS,GO,−0.569
same,ES GO_G_PROTEIN_COUPLED_RECEPTOR_ACTIVITY,GO,−0.476
same,ES GO_HOMOPHILIC_CELL_ADHESION_VIA_PLASMA_MEMBRANE_ADHESION_MOLECULES,GO,−0.581
same,ES GO_MITOTIC_RECOMBINATION,GO,−0.420
same,ES GO_NEGATIVE_REGULATION_OF_EPITHELIAL_CELL_DIFFERENTIATION,GO,−0.597
same,ES GO_PHOSPHOLIPID_TRANSPORTER_ACTIVITY,GO,−0.549
same,ES GO_POTASSIUM_CHANNEL_COMPLEX,GO,−0.536
same,ES GO_RECIPROCAL_DNA_RECOMBINATION,GO,−0.450
same,ES GO_RECOMBINATIONAL_REPAIR,GO,−0.382
same,ES GO_REGULATION_OF_ACUTE_INFLAMMATORY_RESPONSE,GO,−0.521
same,ES GO_REGULATION_OF_MEMBRANE_LIPID_DISTRIBUTION,GO,−0.521
same,ES GO_RESPONSE_TO_X_RAY,GO,−0.501
same,ES GO_SOMATIC_RECOMBINATION_OF_IMMUNOGLOBULIN_GENE_SEGMENTS,GO,−0.498
same,ES GO_SOMITE_DEVELOPMENT,GO,−0.451
same,ES GO_STRAND_DISPLACEMENT,GO,−0.471
same,NES GO_BASAL_PART_OF_CELL,GO,−1.629
same,NES GO_CELL_SURFACE_RECEPTOR_SIGNALING_PATHWAY_INVOLVED_IN_CELL_CELL_SIGNALING,GO,−1.653
same,NES GO_CILIUM_ORGANIZATION,GO,−1.502
same,NES GO_CYTOKINE_RECEPTOR_ACTIVITY,GO,−1.467
same,NES GO_DENDRITIC_SHAFT,GO,−1.746
same,NES GO_DNA_DEPENDENT_ATPASE_ACTIVITY,GO,−1.545
same,NES GO_DNA_DEPENDENT_DNA_REPLICATION_MAINTENANCE_OF_FIDELITY,GO,−1.697
same,NES GO_DNA_DOUBLE_STRAND_BREAK_PROCESSING,GO,−1.613
same,NES GO_DNA_HELICASE_ACTIVITY,GO,−1.504
same,NES GO_DNA_REPAIR_COMPLEX,GO,−1.586
same,NES GO_GLUTAMINE_METABOLIC_PROCESS,GO,−1.616
same,NES GO_G_PROTEIN_COUPLED_RECEPTOR_ACTIVITY,GO,−1.804
same,NES GO_HOMOPHILIC_CELL_ADHESION_VIA_PLASMA_MEMBRANE_ADHESION_MOLECULES,GO,−1.691
same,NES GO_MITOTIC_RECOMBINATION,GO,−1.547
same,NES GO_NEGATIVE_REGULATION_OF_EPITHELIAL_CELL_DIFFERENTIATION,GO,−1.799
same,NES GO_PHOSPHOLIPID_TRANSPORTER_ACTIVITY,GO,−1.692
same,NES GO_POTASSIUM_CHANNEL_COMPLEX,GO,−1.693
same,NES GO_RECIPROCAL_DNA_RECOMBINATION,GO,−1.485
same,NES GO_RECOMBINATIONAL_REPAIR,GO,−1.548
same,NES GO_REGULATION_OF_ACUTE_INFLAMMATORY_RESPONSE,GO,−1.555
same,NES GO_REGULATION_OF_MEMBRANE_LIPID_DISTRIBUTION,GO,−1.498
same,NES GO_RESPONSE_TO_X_RAY,GO,−1.636
same,NES GO_SOMATIC_RECOMBINATION_OF_IMMUNOGLOBULIN_GENE_SEGMENTS,GO,−1.483
same,NES GO_SOMITE_DEVELOPMENT,GO,−1.594
same,NES GO_STRAND_DISPLACEMENT,GO,−1.493
same,ES HALLMARK_KRAS_SIGNALING_DN,HALLMARK,−0.282
same,ES HALLMARK_KRAS_SIGNALING_UP,HALLMARK,−0.230
same,ES HALLMARK_MYC_TARGETS_V1,HALLMARK,−0.172
same,ES HALLMARK_MYC_TARGETS_V2,HALLMARK,−0.178
same,ES HALLMARK_TGF_BETA_SIGNALING,HALLMARK,−0.324
same,NES HALLMARK_KRAS_SIGNALING_DN,HALLMARK,−0.992
same,NES HALLMARK_KRAS_SIGNALING_UP,HALLMARK,−0.965
same,NES HALLMARK_MYC_TARGETS_V1,HALLMARK,−0.831
same,NES HALLMARK_MYC_TARGETS_V2,HALLMARK,−0.691
same,NES HALLMARK_TGF_BETA_SIGNALING,HALLMARK,−1.256
same,ES KEGG_ABC_TRANSPORTERS,KEGG,−0.412
same,ES KEGG_ADHERENS_JUNCTION,KEGG,−0.158
same,ES KEGG_ALANINE_ASPARTATE_AND_GLUTAMATE_METABOLISM,KEGG,−0.250
same,ES KEGG_AMYOTROPHIC_LATERAL_SCLEROSIS_ALS,KEGG,−0.247
same,ES KEGG_AXON_GUIDANCE,KEGG,−0.201
same,ES KEGG_CALCIUM_SIGNALING_PATHWAY,KEGG,−0.324
same,ES KEGG_CELL_ADHESION_MOLECULES_CAMS,KEGG,−0.231
same,ES KEGG_CYTOSOLIC_DNA_SENSING_PATHWAY,KEGG,−0.247
same,ES KEGG_DNA_REPLICATION,KEGG,−0.254
same,ES KEGG_ECM_RECEPTOR_INTERACTION,KEGG,−0.201
same,ES KEGG_HEDGEHOG_SIGNALING_PATHWAY,KEGG,−0.329
same,ES KEGG_HOMOLOGOUS_RECOMBINATION,KEGG,−0.260
same,ES KEGG_MISMATCH_REPAIR,KEGG,−0.375
same,ES KEGG_NEUROACTIVE_LIGAND_RECEPTOR_INTERACTION,KEGG,−0.624
same,ES KEGG_NUCLEOTIDE_EXCISION_REPAIR,KEGG,−0.241
same,ES KEGG_PATHOGENIC_ESCHERICHIA_COLI_INFECTION,KEGG,−0.220
same,ES KEGG_PURINE_METABOLISM,KEGG,−0.285
same,ES KEGG_PYRIMIDINE_METABOLISM,KEGG,−0.256
same,ES KEGG_RIG_I_LIKE_RECEPTOR_SIGNALING_PATHWAY,KEGG,−0.197
same,ES KEGG_RNA_POLYMERASE,KEGG,−0.202
same,ES KEGG_STARCH_AND_SUCROSE_METABOLISM,KEGG,−0.342
same,ES KEGG_TGF_BETA_SIGNALING_PATHWAY,KEGG,−0.336
same,ES KEGG_WNT_SIGNALING_PATHWAY,KEGG,−0.231
same,NES KEGG_ABC_TRANSPORTERS,KEGG,−1.220
same,NES KEGG_ADHERENS_JUNCTION,KEGG,−0.628
same,NES KEGG_ALANINE_ASPARTATE_AND_GLUTAMATE_METABOLISM,KEGG,−0.732
same,NES KEGG_AMYOTROPHIC_LATERAL_SCLEROSIS_ALS,KEGG,−0.838
same,NES KEGG_AXON_GUIDANCE,KEGG,−0.829
same,NES KEGG_CALCIUM_SIGNALING_PATHWAY,KEGG,−1.264
same,NES KEGG_CELL_ADHESION_MOLECULES_CAMS,KEGG,−0.738
same,NES KEGG_CYTOSOLIC_DNA_SENSING_PATHWAY,KEGG,−0.784
same,NES KEGG_DNA_REPLICATION,KEGG,−0.912
same,NES KEGG_ECM_RECEPTOR_INTERACTION,KEGG,−0.655
same,NES KEGG_HEDGEHOG_SIGNALING_PATHWAY,KEGG,−0.982
same,NES KEGG_HOMOLOGOUS_RECOMBINATION,KEGG,−0.820
same,NES KEGG_MISMATCH_REPAIR,KEGG,−1.179
same,NES KEGG_NEUROACTIVE_LIGAND_RECEPTOR_INTERACTION,KEGG,−1.955
same,NES KEGG_NUCLEOTIDE_EXCISION_REPAIR,KEGG,−0.899
same,NES KEGG_PATHOGENIC_ESCHERICHIA_COLI_INFECTION,KEGG,−0.782
same,NES KEGG_PURINE_METABOLISM,KEGG,−1.277
same,NES KEGG_PYRIMIDINE_METABOLISM,KEGG,−1.109
same,NES KEGG_RIG_I_LIKE_RECEPTOR_SIGNALING_PATHWAY,KEGG,−0.724
same,NES KEGG_RNA_POLYMERASE,KEGG,−0.669
same,NES KEGG_STARCH_AND_SUCROSE_METABOLISM,KEGG,−1.006
same,NES KEGG_TGF_BETA_SIGNALING_PATHWAY,KEGG,−1.284
same,NES KEGG_WNT_SIGNALING_PATHWAY,KEGG,−0.992
same,ES BRN2_01,TFBT,−0.247
same,ES CDPCR1_01,TFBT,−0.259
same,ES CDP_01,TFBT,−0.301
same,ES EN1_01,TFBT,−0.276
same,ES FOXJ2_02,TFBT,−0.261
same,ES GGCKCATGS_UNKNOWN,TFBT,−0.441
same,ES HMEF2_Q6,TFBT,−0.266
same,ES HNF1_Q6,TFBT,−0.266
same,ES HOX13_01,TFBT,−0.366
same,ES IK1_01,TFBT,−0.227
same,ES IRF2_01,TFBT,−0.324
same,ES MEF2_02,TFBT,−0.225
same,ES MEF2_Q6_01,TFBT,−0.220
same,ES MEIS1BHOXA9_01,TFBT,−0.320
same,ES NKX3A_01,TFBT,−0.267
same,ES PAX8_01,TFBT,−0.439
